Experimental data taken from US20260151516A1, “NEW PET TRACER FOR IMAGING OF THE FUNCTIONAL HEPATIC RESERVE” (Medizinische Universität Innsbruck, priority 2022, published 2026).
One block for each compound: values may come before it.

Legend:
[1] = Biodistribution studies incl. blocking experiments; assay type: in vivo; conditions: healthy BALB/c mice
Method: For biodistribution studies 6 week old female BALB/c mice (n=3) were injected with 0.1 nmol (100 μL, approx. 1 MBq) of labelled compound via the lateral tail vein and sacrificed after 10, 30, or 60 min by cervical dislocation. The mice were dissected, blood and organs (spleen, pancreas, stomach, intestine, liver, kidney, heart, lung, muscle, and bone) were weighed, and their activity measured in a γ-counter. For blocking experiments, mice were co-injected with 100 μL of a 277 mM Galactose/PBS solution. In case of [^68Ga]Ga-TRAP-GalNAc a 277 mM N-Acetylgalactose solution was used.

[2] = Partition coefficient (log D), n-Octanol/PBS; assay type: physicochemical
Method: The vials were vortexed for 5 min at 1,500 rpm and then centrifuged for 5 min at 20,000 rcf (Eppendorf Centrifuge 5424).

[3] = 30 min p.i., blocking with 277 mM galactose

- Biodistribution Liver [1, 3]: 3.24±0.2 % ID/g
Compound: O=C(CCP(=O)(O)CN1CCN(CP(=O)(O)CCC(=O)NCc2cn([C@@H]3O[C@H](CO)[C@H](O)[C@H](O)[C@H]3O)nn2)CCN(CP(=O)(O)CCC(=O)NCc2cn([C@@H]3O[C@H](CO)[C@H](O)[C@H](O)[C@H]3O)nn2)CC1)NCc1cn(C2O[C@H](CO)[C@H](O)[C@H](O)[C@H]2O)nn1 (stereo partly drawn) [Galacto-TRAP]

Compound: O=C(CCP(=O)([O-])CN1CCN(CP(=O)([O-])CCC(=O)NCc2cn([C@@H]3O[C@H](CO)[C@H](O)[C@H](O)[C@H]3O)nn2)CCN(CP(=O)([O-])CCC(=O)NCc2cn([C@@H]3O[C@H](CO)[C@H](O)[C@H](O)[C@H]3O)nn2)CC1)NCc1cn([C@@H]2O[C@H](CO)[C@H](O)[C@H](O)[C@H]2O)nn1.[68Ga+3] [[^68Ga]Ga-Galacto-TRAP]
- Biodistribution Femur ([1]; 10 min p.i.): 1.11 ± 0.18 % ID/g
- Biodistribution Heart ([1]; 10 min p.i.): 6.08 ± 0.51 % ID/g
- Biodistribution Intestine ([1]; 10 min p.i.): 1.80 ± 0.16 % ID/g
- Biodistribution Liver ([1]; 10 min p.i.): 12.2 ± 1.4 % ID/g
- Biodistribution Lung ([1]; 10 min p.i.): 1.97 ± 0.07 % ID/g
- Biodistribution Muscle ([1]; 10 min p.i.): 3.25 ± 0.27 % ID/g
- Biodistribution Pancreas ([1]; 10 min p.i.): 1.20 ± 0.03 % ID/g
- Biodistribution Spleen ([1]; 10 min p.i.): 5.58 ± 0.17 % ID/g
- Biodistribution Stomach ([1]; 10 min p.i.): 1.17 ± 0.05 % ID/g
- Biodistribution Blood ([1]; 30 min p.i.): 0.47 ± 0.16 % ID/g
- Biodistribution Femur ([1]; 30 min p.i.): 0.44 ± 0.01 % ID/g
- Biodistribution Heart ([1]; 30 min p.i.): 5.44 ± 0.75 % ID/g
- Biodistribution Intestine ([1]; 30 min p.i.): 0.79 ± 0.15 % ID/g
- Biodistribution Kidneys ([1]; 30 min p.i.): 0.88 ± 0.07 % ID/g
- Biodistribution Liver ([1]; 30 min p.i.): 5.02 ± 1.08 % ID/g
- Biodistribution Lung ([1]; 30 min p.i.): 0.75 ± 0.16 % ID/g
- Biodistribution Pancreas ([1]; 30 min p.i.): 0.49 ± 0.07 % ID/g
- Biodistribution Spleen ([1]; 30 min p.i.): 2.17 ± 0.54 % ID/g
- Biodistribution Stomach ([1]; 30 min p.i.): 0.53 ± 0.05 % ID/g
- Biodistribution Blood [1, 3]: 0.43 ± 0.14 % ID/g
- Biodistribution Femur [1, 3]: 0.38 ± 0.06 % ID/g
- Biodistribution Heart [1, 3]: 3.24 ± 0.19 % ID/g
- Biodistribution Intestine [1, 3]: 0.67 ± 0.15 % ID/g
- Biodistribution Kidneys [1, 3]: 0.75 ± 0.11 % ID/g
- Biodistribution Liver [1, 3]: 5.10 ± 0.72 % ID/g
- Biodistribution Lung [1, 3]: 0.68 ± 0.08 % ID/g
- Biodistribution Muscle [1, 3]: 1.35 ± 0.16 % ID/g
- Biodistribution Pancreas [1, 3]: 0.43 ± 0.02 % ID/g
- Biodistribution Spleen [1, 3]: 1.84 ± 0.14 % ID/g
- Biodistribution Stomach [1, 3]: 0.48 ± 0.05 % ID/g
- Biodistribution Blood ([1]; 60 min p.i.): 0.11 ± 0.03 % ID/g
- Biodistribution Femur ([1]; 60 min p.i.): 0.10 ± 0.04 % ID/g
- Biodistribution Heart ([1]; 60 min p.i.): 4.84 ± 0.66 % ID/g
- Biodistribution Intestine ([1]; 60 min p.i.): 0.14 ± 0.02 % ID/g
- Biodistribution Kidneys ([1]; 60 min p.i.): 0.60 ± 0.06 % ID/g
- Biodistribution Lung ([1]; 60 min p.i.): 0.12 ± 0.01 % ID/g
- Biodistribution Muscle ([1]; 60 min p.i.): 0.35 ± 0.05 % ID/g
- Biodistribution Pancreas ([1]; 60 min p.i.): 0.12 ± 0.02 % ID/g
- Biodistribution Spleen ([1]; 60 min p.i.): 0.52 ± 0.23 % ID/g
- Biodistribution Stomach ([1]; 60 min p.i.): 0.11 ± 0.01 % ID/g
- logD [2]: −4.16±0.09
